Read-outs that look alike come from different tables or passages of the source.
What was measured:
ATX = target: T1, ATX (Homo sapiens, UniProt Q13822); test: ATX inhibitory activity: LPA production in pooled human plasma, LC-MS-MS; type: biochemical; conditions: 37° C. 2 h
T1 construct: ATX activity was detected by detecting LPA production in pooled human plasma; from tissue; host or cells: pooled human plasma (heparin-anticoagulated whole blood, centrifuged)
Protocol: Experimental subject: compounds to be tested.
ATX activity was detected by detecting LPA production in pooled human plasma. Whole blood anticoagulated with heparin was collected and centrifuged, and then plasma was collected. 5-μL gradient dilution of the compound to be tested or DMSO was added to 95-μL plasma, incubated at 37° C. for 2 h, then a stop solution (40 mM disodium hydrogen phosphate buffer, containing a buffer solution (containing 30 mM citric acid, pH=4)) was added. LPA in plasma was detected by LC-MS-MS before and after incubation.
LPA (18:2) and (20:4) LC-MS-MS analytical method
Using a 1.5 mL EP tube, 3.0 μL of each of the working solutions for standard curve and quality control was taken and added to 27.0 μL of water. After homogeneously mixing by vortex, 400 μL of internal standard solution was added. After homogeneously mixing by vortex, the mixture was centrifuged at 4° C. for 10 min. 180 μL of supernatant was taken and added into a 96-well plate, waiting for sample injection.
10 μL of the compound to be tested (10 mg/ml) was precisely pipetted into an EP tube, 990 μL of DMSO solution was added, and the mixture was vortexed to completely dissolve to obtain a solution (100 μg/mL).
Inhibition rate of ATX receptor activity was calculated in the following way: inhibition rate %=((LPAc−LPA0)−(LPAi−LPA0))/(LPAc−LPA0)*100%, wherein LPAc was the LPA content in plasma after DMSO was added and incubated for 2 h, LPA0 was the LPA content in plasma before DMSO was added for incubation, and LPAi was the LPA content in plasma after test compound was added and incubated for 2 h.

[1] = Pharmacokinetic experiment in mice (single dose iv and intragastric); type: in vivo; conditions: mouse, plasma, male C57 mice
Protocol: Experimental objective: In this experiment, a single dose of each test compound was administered to C57 mice intravenously and intragastrically, the concentrations of the compounds 35, 37 and 38 in plasma of the mice were measured, and the pharmacokinetic characteristics and bioavailability of each test compound in mice were evaluated.
Experimental animals: Male C57 mice, 20-25 g, 6-8 weeks old, 18 mice/compound. The experimental animals were purchased from CHENGDU DOSSY EXPERIMENTAL ANIMALS CO., LTD.
Experimental method: On the day of the experiment, 18 C57 mice were randomly grouped according to their body weight. The animals were fasted with water available for 12 to 14 hours one day before the administration of a test compound, and were fed 4 hours after the administration.
Before and after the administration, 0.08 ml of blood was taken from the orbit of the […] under isoflurane anesthesia, and placed in an EDTAK2 centrifuge tube. Centrifugation was carried out at 5000 rpm at 4° C. for 10 min and the plasma was collected.
Time points for plasma collection in G1 group: 0, 5, 15, 30 min, 1, 2, 4, 6, 8, and 24 h.
Time points for plasma collection in G2 group: 0, 15, 30 min, 1, 2, 4, 6, 8, and 24 h.
Before analysis and detection, all samples were stored at −80° C.
30 μL of each of plasma sample, standard curve and quality control sample was taken, and 200 μL of acetonitrile solution containing internal standard was added, and the mixture was homogeneously mixed by vortex, and then centrifuged at 12000 rpm for 10 min at 4° C. The supernatant was taken and added into a 96-well plate and analyzed by LC-MS/MS.
The main pharmacokinetic parameters were analyzed by non-compartmental model using WinNonlin 8.0 software.

[2] = LPA 18:2 readout, read-out: Inhibitory activity against ATX receptor, LPA 18:2 IC50
[3] = LPA 20:4 readout, read-out: Inhibitory activity against ATX receptor, LPA 20:4 IC50

| SMILES | IC50 (ATX; [2]) | IC50 (ATX; [3]) | further results |
| --- | --- | --- | --- |
| O=C(Cc1nnc(-c2cnc(N[C@@H]3Cc4ccc(C(F)F)cc4C3)nc2)o1)N1CCc2[nH]nnc2C1 [Compound 37, (R)-2-(5-(2-((5-(difluoromethyl)-2,3-dihydro-1H-inden-2-yl)amino)pyrimidin-5-yl)-1,3,4-oxadiazol-2-yl)-1-(1,4,6,7-tetrahydro-5H-[1,2,3]triazolo[4,5-c]pyridin-5-yl)ethan-1-one] | 4.84 nM | 4.78 nM | bioavailability ([1]; po 10 mg/kg vs iv 2.5 mg/kg, read-out: F (bioavailability)): 17.8%; AUC ([1]; iv 2.5 mg/kg): 3.79 µg·h/mL; C0 ([1]; iv 2.5 mg/kg): 6.64 µg/mL; half-life ([1]; iv 2.5 mg/kg): 53.3 min; AUC ([1]; po 10 mg/kg): 2.7 µg·h/mL; Cmax ([1]; po 10 mg/kg): 1.6 µg/mL; Tmax ([1]; po 10 mg/kg): 15 min; half-life ([1]; po 10 mg/kg): 78.6 min |
| N#Cc1nc(CC(=O)N2CCc3[nH]nnc3C2)oc1-c1cnc(NC2Cc3ccccc3C2)nc1 [Compound 22, 5-(2-((2,3-dihydro-1H-inden-2-yl)amino)pyrimidin-5-yl)-2-(2-oxo-2-(1,4,6,7-tetrahydro-5H-[1,2,3]triazolo[4,5-c]pyridin-5-yl)ethyl)oxazole-4-carbonitrile] | 4.97 nM | 6.84 nM | – |
| O=C(Cc1nnc(-c2cnc(NC3Cc4cc5c(cc4C3)CC5)nc2)o1)N1CCc2[nH]nnc2C1 [Compound 30, 2-(5-(2-((2,4,5,6-tetrahydro-1H-cyclobuta[f]inden-5-yl)amino)pyrimidin-5-yl)-1,3,4-oxadiazol-2-yl)-1-(1,4,6,7-tetrahydro-5H-[1,2,3]triazolo[4,5-c]pyridin-5-yl)ethan-1-one] | 1.58 nM | 1.92 nM | – |
| N#Cc1nn(CC(=O)N2CCc3[nH]nnc3C2)cc1-c1cnc(NC2Cc3ccccc3C2)nc1 [Compound 2, 4-(2-((2,3-dihydro-1H-inden-2-yl)amino)pyrimidin-5-yl)-1-(2-oxo-2-(1,4,6,7-tetrahydro-5H-[1,2,3]triazolo[4,5-c]pyridin-5-yl)ethyl)-1H-pyrazole-3-carbonitrile] | 6.19 nM | 6.85 nM | – |
| N#Cc1ccc2c(c1)CC(Nc1ncc(-c3nnc(CC(=O)N4CCc5[nH]nnc5C4)o3)cn1)C2 (stereo not drawn) [Compound 8, 2-((5-(5-(2-(6,7-dihydro-1H-[1,2,3]triazolo[4,5-c]pyridin-5(4H)-yl)-2-oxoethyl)-1,3,4-oxadiazol-2-yl)pyrimidin-2-yl)amino)-2,3-dihydro-1H-indene-5-carbonitrile] | 5.94 nM | 6.18 nM | – |
| O=C(N1CCc2[nH]nnc2C1)C1(c2nnc(-c3cnc(NC4Cc5ccccc5C4)nc3)o2)CC1 [Compound 4, (1-(5-(2-((2,3-dihydro-1H-inden-2-yl)amino)pyrimidin-5-yl)-1,3,4-oxadiazol-2-yl)cyclopropyl)(1,4,6,7-tetrahydro-5H-[1,2,3]triazolo[4,5-c]pyridin-5-yl)methanone] | 4.93 nM | 5.33 nM | – |
| O=C(Cc1nnc(-c2cnc(NC3Cc4ccc(C5CC5)cc4C3)nc2)o1)N1CCc2[nH]nnc2C1 (stereo not drawn) [Compound 7, 2-(5-(2-((5-cyclopropyl-2,3-dihydro-1H-inden-2-yl)amino)pyrimidin-5-yl)-1,3,4-oxadiazol-2-yl)-1-(1,4,6,7-tetrahydro-5H-[1,2,3]triazolo[4,5-c]pyridin-5-yl)ethan-1-one] | 7.46 nM | 7.67 nM | – |
| O=C(Cc1nnc(-c2cnc(NC3Cc4cc5c(cc4C3)OCO5)nc2)o1)N1CCc2nn[nH]c2C1 [Compound 29, 2-(5-(2-((6,7-dihydro-5H-indeno[5,6-d][1,3]dioxol-6-yl)amino)pyrimidin-5-yl)-1,3,4-oxadiazol-2-yl)-1-(3,4,6,7-tetrahydro-5H-[1,2,3]triazolo[4,5-c]pyridin-5-yl)ethan-1-one] | 2.75 nM | 3.27 nM | – |
| C#Cc1ccc2c(c1)C[C@@H](Nc1ncc(-c3nnc(CC(=O)N4CCc5[nH]nnc5C4)o3)cn1)C2 (single isomer, unassigned) [Compound 40] | 1.51 nM | 1.56 nM | – |
| O=C(NC1(c2nnc(-c3cnc(NC4Cc5ccccc5C4)nc3)o2)CC1)N1CCc2[nH]nnc2C1 [Compound 14, N-(1-(5-(2-((2,3-dihydro-1H-inden-2-yl)amino)pyrimidin-5-yl)-1,3,4-oxadiazol-2-yl)cyclopropyl)-1,4,6,7-tetrahydro-5H-[1,2,3]triazolo[4,5-c]pyridine-5-carboxamide] | 5.97 nM | 6.56 nM | – |
| CNC(=O)c1nn(CC(=O)N2CCc3[nH]nnc3C2)cc1-c1cnc(NC2Cc3ccccc3C2)nc1 [Compound 3, 4-(2-((2,3-dihydro-1H-inden-2-yl)amino)pyrimidin-5-yl)-N-methyl-1-(2-oxo-2-(1,4,6,7-tetrahydro-5H-[1,2,3]triazolo[4,5-c]pyridin-5-yl)ethyl)-1H-pyrazole-3-carboxamide] | 5.68 nM | 5.65 nM | – |
| O=C(Cc1nnc(-c2cnc(NC3Cc4ccc(C(F)F)cc4C3)nc2)o1)N1CCc2[nH]nnc2C1 (stereo not drawn) [Compound 9, 2-(5-(2-((5-(difluoromethyl)-2,3-dihydro-1H-inden-2-yl)amino)pyrimidin-5-yl)-1,3,4-oxadiazol-2-yl)-1-(1,4,6,7-tetrahydro-5H-[1,2,3]triazolo[4,5-c]pyridin-5-yl)ethan-1-one] | 3.26 nM | 3.65 nM | – |
| O=C(Cn1cc(-c2cnc(NC3Cc4ccccc4C3)nc2)c(OC2CC2)n1)N1CCc2[nH]nnc2C1 [Compound 1, 2-(3-cyclopropoxy-4-(2-((2,3-dihydro-1H-inden-2-yl)amino)pyrimidin-5-yl)-1H-pyrazol-1-yl)-1-(1,4,6,7-tetrahydro-5H-[1,2,3]triazolo[4,5-c]pyridin-5-yl)ethan-1-one] | 8.53 nM | – | – |
| O=C(Cc1nnc(-c2cnc(NC3Cc4cscc4C3)nc2)o1)N1CCc2[nH]nnc2C1 [Compound 26, 2-(5-(2-((5,6-dihydro-4H-cyclopenta[c]thiophen-5-yl)amino)pyrimidin-5-yl)-1,3,4-oxadiazol-2-yl)-1-(1,4,6,7-tetrahydro-5H-[1,2,3]triazolo[4,5-c]pyridin-5-yl)ethan-1-one] | 8.73 nM | 8.86 nM | – |
| O=C(Cc1nnc(-c2cnc(N[C@H]3Cc4ccc(-c5ccoc5)cc4C3)nc2)o1)N1CCc2[nH]nnc2C1 (single isomer, unassigned) [Compound 42] | 2.86 nM | 2.69 nM | – |
| C#Cc1ccc2c(c1)CC(Nc1ncc(-c3nnc(CC(=O)N4CCc5[nH]nnc5C4)o3)cn1)C2 (stereo not drawn) [Compound 31, 2-(5-(2-((5-ethynyl-2,3-dihydro-1H-inden-2-yl)amino)pyrimidin-5-yl)-1,3,4-oxadiazol-2-yl)-1-(1,4,6,7-tetrahydro-5H-[1,2,3]triazolo[4,5-c]pyridin-5-yl)ethan-1-one] | 2.61 nM | 2.85 nM | – |
| O=C(Cc1nnc(-c2cnc(NC3Cc4ccc(-c5ccoc5)cc4C3)nc2)o1)N1CCc2[nH]nnc2C1 (stereo not drawn) [Compound 28, 2-(5-(2-((5-(furan-3-yl)-2,3-dihydro-1H-inden-2-yl)amino)pyrimidin-5-yl)-1,3,4-oxadiazol-2-yl)-1-(1,4,6,7-tetrahydro-5H-[1,2,3]triazolo[4,5-c]pyridin-5-yl)ethan-1-one] | 5.24 nM | 5.4 nM | – |
| O=C(N1CCc2[nH]nnc2C1)C1(c2nnc(-c3cnc(NC4Cc5ccccc5C4)nc3)o2)CCC1 [Compound 20, (1-(5-(2-((2,3-dihydro-1H-inden-2-yl)amino)pyrimidin-5-yl)-1,3,4-oxadiazol-2-yl)cyclobutyl)(1,4,6,7-tetrahydro-5H-[1,2,3]triazolo[4,5-c]pyridin-5-yl)methanone] | 3.65 nM | 3.76 nM | – |
| CC(F)(C(=O)N1CCc2[nH]nnc2C1)c1nnc(-c2cnc(NC3Cc4ccccc4C3)nc2)o1 (stereo not drawn) [Compound 27, 2-(5-(2-((2,3-dihydro-1H-inden-2-yl)amino)pyrimidin-5-yl)-1,3,4-oxadiazol-2-yl)-2-fluoro-1-(1,4,6,7-tetrahydro-5H-[1,2,3]triazolo[4,5-c]pyridin-5-yl)propan-1-one] | 6.26 nM | 7.08 nM | – |

Reference: patent publication US20230069174A1, “NITROGEN-CONTAINING HETEROCYCLIC AUTOTAXIN INHIBITOR, AND COMPOSITION CONTAINING SAME AND USE THEREOF” (SICHUAN HAISCO PHARMACEUTICAL CO., LTD., priority 2019, published 2023)
